In the experiment the target is T1, Glycogen [starch] synthase, muscle (Homo sapiens, UniProt P13807).
T1 sequence (P13807 whole entry): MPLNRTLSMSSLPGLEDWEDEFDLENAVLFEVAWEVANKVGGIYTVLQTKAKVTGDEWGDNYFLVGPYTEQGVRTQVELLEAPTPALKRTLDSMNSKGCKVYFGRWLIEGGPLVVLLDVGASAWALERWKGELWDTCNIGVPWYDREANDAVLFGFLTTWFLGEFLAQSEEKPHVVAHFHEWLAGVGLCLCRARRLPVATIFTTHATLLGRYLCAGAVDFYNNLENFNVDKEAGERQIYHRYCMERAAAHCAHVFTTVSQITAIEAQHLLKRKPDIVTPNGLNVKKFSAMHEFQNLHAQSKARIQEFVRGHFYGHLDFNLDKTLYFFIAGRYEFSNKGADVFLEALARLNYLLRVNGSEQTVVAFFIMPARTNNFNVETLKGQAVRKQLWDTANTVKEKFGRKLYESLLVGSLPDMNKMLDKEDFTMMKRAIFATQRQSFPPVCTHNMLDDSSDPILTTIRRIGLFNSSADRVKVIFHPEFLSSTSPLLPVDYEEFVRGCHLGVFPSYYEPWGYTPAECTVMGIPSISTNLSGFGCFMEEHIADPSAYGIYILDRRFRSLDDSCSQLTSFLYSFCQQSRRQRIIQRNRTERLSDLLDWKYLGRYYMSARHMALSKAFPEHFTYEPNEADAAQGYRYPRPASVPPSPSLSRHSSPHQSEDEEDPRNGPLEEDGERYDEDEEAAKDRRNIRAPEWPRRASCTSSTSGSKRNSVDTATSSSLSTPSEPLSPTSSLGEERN
The experiment in a line: Glycogen Synthase Activity Assay: To a polystyrene 96-well plate, a solution containing 30 mM glycylglycine (pH 7.3), 40 mM KCl, 20 mM MgCl2, 9.2% DMSO containing one of the test compounds at various concentrations, and 10 mM glucose-6-phosphate (Sigma-Aldrich Corporation, G7879) was added by 12 uL/well. Next, a substrate solution containing 30 mM glycylglycine (pH 7.3), 4.3 mg/mL of glycogen (Sigma-Aldrich Corporation, G8876), 21.6 mM UDP-glucose (Sigma-Aldrich Corporation, U4625), 21.6 mM phosphoenolpyruvic acid (Sigma-Aldrich Corporation, P0564), and 4.05 mM NADH (Sigma-Aldrich Corporation, N8129) was added by 18 uL/well. Further, an enzyme solution containing 50 mM Tris-HCl (pH 8.0), 27 mM DTT (Nacalai Tesque, Inc., 14128-04), 0.2 mg/mL of bovine serum albumin, 0.17 mg/mL of the glycogen synthase, 1.5 uL of a pyruvate kinase/lactate dehydrogenase solution (Sigma-Aldrich Corporation, P0294) was added by 18 uL/well to prepare a reaction solution. After the reaction solution was incubated (at 30° C. for 25 minutes for Examples 1 to 10, at 37° C. for 20 minutes for Examples 11 to 75), the absorbance at 340 nm was measured using Benchmark Plus (Bio-Rad Laboratories, Inc.).

A word on the EC50: it is the midpoint of the concentration-response curve. As for `O=C(O)[C@@H]1CCCN1C(=O)c1cccc(COc2ccc(-c3cc(F)c(F)c4c3OCC=C4)cc2)c1`, the EC50 came out at 100 nM.
Turning to `O=C(O)[C@@H]1CCCN1C(=O)c1cccc(COc2ccc(-c3cc(F)cc4c3OCC=C4)cc2)c1`, the EC50 turned out to be 780 nM.
